Experimental findings from patent publication USRE47689E1, “Compounds for treating spinal muscular atrophy” (PTC Therapeutics, Inc., priority 2011, dated 2019) are described below.

For data set [1], the system named is SMN2 minigene (full length SMN2 minigene mRNA containing SMN2 exon 7). Put plainly: SMN2 minigene mRNA splicing RT-qPCR assay in cultured cells. As to conditions: Homo sapiens, HEK293-H; HEK293H cells stably transfected with SMN2-A minigene; 24 hours; 7-point concentration curve; 1.5-fold relative to vehicle-treated cells; read-out: EC1.5x for production of full length SMN2 mRNA. It counts as cell-based, human. In a few lines:
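Full-length SMN2 minigene mRNA (exon 7 included), minigene-specific and not endogenous SMN, quantified by RT-qPCR multiplexed with GAPDH in stably transfected HEK293H cells after 24 h compound exposure at 37° C. Abundance from efficiency-corrected Ct, normalized to GAPDH and vehicle; EC1.5x reported as star bins.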
(In general: In qPCR the cycle at which signal appears reflects the starting amount.)

For the next data set, the system named is Smn protein. In words: Smn protein assay in cultured cells (SMN HTRF). The class given is cell-based, human. The note with it: 48 hours; for maximum fold (Fold) increase of Smn protein: SMA patient fibroblast cells, 7-point concentration data, fold increase relative to vehicle control (SMN HTRF); for EC1.5x (concentration giving 1.5-fold Smn protein increase): SMA Type 1 patient fibroblast cells (GM03813), 7-point concentration curve, SMN HTRF, concentration producing 1.5 times Smn protein vs DMSO vehicle control, read-out: EC1.5x for Smn protein expression. The method, boiled down: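 Smn in SMA fibroblast lysates, measured by anti-SMN HTRF after 48 h compound exposure; EC1.5x from fold change over vehicle.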

Where only a bound is given, the exact number is not on record here.

Broadly, the melting point is the temperature, or range, at which the solid turns liquid. In turn, `COc1ccc(-c2cc3ccc(N4CCN[C@@H](C)C4)cc3oc2=O)cc1C` [Compound 542, 3-(4-methoxy-3-methylphenyl)-7-[(3S)-3-methylpiperazin-1-yl]-2H-chromen-2-one] registered a melting point of 127 to 131 °C. In data set [1], the EC (1.5-fold) lay in the range of 1 to 3 µM. For the same compound, in the data set on Smn protein, the “maximum fold (Fold) increase of Smn protein” value (“maximum fold (Fold) increase” below) is “* (maximum fold increase of ≤1.2)”.
With `O=c1oc2cc(N3CCNCC3)ccc2cc1-c1cn2ccncc2n1` [Cpd 456, 3-(imidazo[1,2-a]pyrazin-2-yl)-7-(piperazin-1-yl)-2H-chromen-2-one], the melting point fell in the range of 258 to 260 °C. For the same compound, in data set [1], the EC (1.5-fold) is less than 0.1 µM. In the data set on Smn protein, the EC1.5x (concentration giving 1.5-fold Smn protein increase) was 1000 to 3000 nM; the “maximum fold (Fold) increase” value was “**** (fold increase between >1.5 and ≤1.65)”.
Consider `O=c1oc2cc(N3CCCNCC3)ccc2cc1-c1cn2ccsc2n1` [Compound 206, 7-(1,4-diazepan-1-yl)-3-(imidazo[2,1-b][1,3]thiazol-6-yl)-2H-chromen-2-one], for which the melting point was in the range of 225 to 230 °C. Moreover, the EC (1.5-fold) in data set [1] is 0.3 to 1 µM. Moreover, the “maximum fold (Fold) increase” value in the data set with Smn protein is “** (fold increase between >1.2 and ≤1.35)”.
For `Cc1cc(C)c2nc(-c3cc4ccc(N5CCN[C@@H](C)C5)cc4oc3=O)cn2c1` [Compound 425, 3-(6,8-dimethylimidazo[1,2-a]pyridin-2-yl)-7-[(3S)-3-methylpiperazin-1-yl]-2H-chromen-2-one], the melting point is 221 to 226 °C. Besides, in data set [1], the EC (1.5-fold) fell in the range of 0.1 to 0.3 µM. In the data set on Smn protein, the EC1.5x (concentration giving 1.5-fold Smn protein increase) lay within 1000 to 3000 nM; the “maximum fold (Fold) increase” value is “*** (fold increase between >1.35 and ≤1.5)”.
Compound `Cc1cc(F)cn2cc(-c3cc4ccc(N5CCCN(C)CC5)cc4oc3=O)nc12` [Compound 330, 3-(6-fluoro-8-methylimidazo[1,2-a]pyridin-2-yl)-7-(4-methyl-1,4-diazepan-1-yl)-2H-chromen-2-one] gave a melting point of 191 to 198 °C. Moreover, the EC (1.5-fold) in data set [1] was in the range of 0.3 to 1 µM. The “maximum fold (Fold) increase” value with Smn protein is recorded as “* (maximum fold increase of ≤1.2)”.
In the same order, the values of `CCN1CCN(c2ccc3cc(-c4cn5c(C)csc5n4)c(=O)oc3c2)CC1` [Compound 178, 7-(4-ethylpiperazin-1-yl)-3-(3-methylimidazo[2,1-b][1,3]thiazol-6-yl)-2H-chromen-2-one] are 178 to 180 °C, 3 to 30 µM and “* (maximum fold increase of ≤1.2)”.
The compound `Cc1cn2cc(-c3cc4ccc(N5CCN(CCO)CC5)cc4oc3=O)nc2cn1` [Compound 837, 7-[4-(2-hydroxyethyl)piperazin-1-yl]-3-(6-methylimidazo[1,2-a]pyrazin-2-yl)-2H-chromen-2-one] had a melting point of 246 to 252 °C. Also, the EC (1.5-fold) in data set [1] is less than 0.1 µM. Moreover, in the data set with Smn protein, the EC1.5x (concentration giving 1.5-fold Smn protein increase) is less than 300 nM and the “maximum fold (Fold) increase” value is “***** (fold increase >1.65)”.
On to `C[C@H]1CN(c2ccc3cc(-c4cccc(C(F)(F)F)c4)c(=O)oc3c2)CCN1` [Compound 490, 7-[(3S)-3-methylpiperazin-1-yl]-3-[3-(trifluoromethyl)phenyl]-2H-chromen-2-one], for which the melting point lay in the range of 141 to 143 °C. Besides, the EC (1.5-fold) in data set [1] was 1 to 3 µM. In addition, the “maximum fold (Fold) increase” value in the data set with Smn protein is recorded as “* (maximum fold increase of ≤1.2)”.
For the compound `CN1CCN(c2ccc3cc(-c4cn5cc(C#N)ccc5n4)c(=O)oc3c2)CC1` [Compound 208, 2-[7-(4-methylpiperazin-1-yl)-2-oxo-2H-chromen-3-yl]imidazo[1,2-a]pyridine-6-carbonitrile], the melting point was 291 °C (dec.). Also, the EC (1.5-fold) in data set [1] lay in the range of 1 to 3 µM. In addition, the “maximum fold (Fold) increase” value with Smn protein is “* (maximum fold increase of ≤1.2)”.
`Cc1ccn2cc(-c3cc4ccc(N[C@H]5CCNC5)cc4oc3=O)nc2c1` [Compound 581, 3-(7-methylimidazo[1,2-a]pyridin-2-yl)-7-[(3S)-pyrrolidin-3-ylamino]-2H-chromen-2-one] came in with a melting point of 243 to 253 °C. Besides, the EC (1.5-fold) in data set [1] fell in the range of 0.3 to 1 µM. Moreover, the “maximum fold (Fold) increase” value in the data set on Smn protein is “* (maximum fold increase of ≤1.2)”.
Regarding `C[C@H]1CN(c2ccc3cc(-c4cccc(F)c4F)c(=O)oc3c2)CCN1` [Compound 546, 3-(2,3-difluorophenyl)-7-[(3S)-3-methylpiperazin-1-yl]-2H-chromen-2-one], the melting point is 116 to 118 °C. In addition, in data set [1], the EC (1.5-fold) lay within 3 to 30 µM. For the same compound, the “maximum fold (Fold) increase” value in the data set on Smn protein is reported as “* (maximum fold increase of ≤1.2)”.
`COc1ccc(-c2cc3ccc(N4CCNCC4)cc3oc2=O)cc1OC` [Cpd 316, 3-(3,4-dimethoxyphenyl)-7-(piperazin-1-yl)-2H-chromen-2-one]: the melting point lay within 168 to 170 °C. Also, the EC (1.5-fold) in data set [1] was in the range of 0.3 to 1 µM. Also, in the data set on Smn protein, the “maximum fold (Fold) increase” value is “** (fold increase between >1.2 and ≤1.35)”.
The compound `CN1CCN(c2ccc3cc(-c4cn5ccsc5n4)c(=O)oc3c2)CC1` [Cpd 117, 3-(imidazo[2,1-b][1,3]thiazol-6-yl)-7-(4-methylpiperazin-1-yl)-2H-chromen-2-one] yielded a melting point of 256 to 258 °C. Also, the EC (1.5-fold) in data set [1] lay in the range of 0.1 to 0.3 µM. Moreover, in the data set with Smn protein, the EC1.5x (concentration giving 1.5-fold Smn protein increase) lay within 300 to 1000 nM; the “maximum fold (Fold) increase” value was “**** (fold increase between >1.5 and ≤1.65)”.
`Cc1ccc2nc(-c3cc4ccc(O[C@@H]5CCNC5)cc4oc3=O)cn2c1.Cl.Cl` [Compound 326, 3-(6-methylimidazo[1,2-a]pyridin-2-yl)-7-[(3R)-pyrrolidin-3-yloxy]-2H-chromen-2-one hydrochloride (1:2)] yielded a melting point of 261 to 265 °C. Besides, the EC (1.5-fold) in data set [1] was 0.1 to 0.3 µM. Moreover, in the data set on Smn protein, the “maximum fold (Fold) increase” value is “** (fold increase between >1.2 and ≤1.35)”.
Compound `C[C@@H]1CN(c2ccc3cc(-c4ccc5c(c4)OCCO5)c(=O)oc3c2)C[C@H](C)N1` [Compound 514, 3-(2,3-dihydro-1,4-benzodioxin-6-yl)-7-[(3R,5S)-3,5-dimethylpiperazin-1-yl]-2H-chromen-2-one] yielded a melting point of 138 to 140 °C. Besides, the EC (1.5-fold) in data set [1] was 3 to 30 µM. The “maximum fold (Fold) increase” value with Smn protein was “* (maximum fold increase of ≤1.2)”.
`Cc1cn2cc(-c3cc4ccc(N5CCN(C(C)C)CC5)cc4oc3=O)nc2c(C)n1` [Compound 792, 3-(6,8-dimethylimidazo[1,2-a]pyrazin-2-yl)-7-[4-(propan-2-yl)piperazin-1-yl]-2H-chromen-2-one] showed a melting point of 240 to 242 °C. The EC (1.5-fold) in data set [1] was less than 0.1 µM. Also, in the data set with Smn protein, the EC1.5x (concentration giving 1.5-fold Smn protein increase) is less than 300 nM; the “maximum fold (Fold) increase” value was “**** (fold increase between >1.5 and ≤1.65)”.
As for `Cc1cn2cc(-c3cc4c(F)cc(N5CCCNCC5)cc4oc3=O)nc2cn1` [Compound 550, 7-(1,4-diazepan-1-yl)-5-fluoro-3-(6-methylimidazo[1,2-a]pyrazin-2-yl)-2H-chromen-2-one], the melting point was 270 to 274 °C. The EC (1.5-fold) in data set [1] was less than 0.1 µM. In the data set with Smn protein, the EC1.5x (concentration giving 1.5-fold Smn protein increase) is less than 300 nM; the “maximum fold (Fold) increase” value was “**** (fold increase between >1.5 and ≤1.65)”.
